Values joined by “and” are separate entries in the source; they are usually repeats but may differ in a detail not shown here. Equal values may be shown once.
Experiments:
[1] = tested on: MMP-13; assay: MMP-13 ELISA on supernatants of TNF-α-treated chondrogenic pellets; type: cell-based, human; conditions: > = failed to inhibit up to highest concentration tested
[2] = tested on: MMT/MCLT rat model of OA; assay: MMT/MCLT trial 1 histopathology (same doses); type: in vivo; parameters: key to Tibial cartilage degeneration score, 3-zone total: sum of three tibial zone scores (each on 5-point scale); key to Total joint score w/o femur / Total joint score / Total joint score without femur: sum: cartilage degeneration scores + mean osteophyte score; conditions: for Bone score / Depth ratio any matrix change, mean / Depth ratio any matrix change, zone 2 / Tibial cartilage degeneration score, 3-zone total / Tibial cartilage degeneration score, zone 1 / Tibial cartilage degeneration score, zone 2 / Tibial cartilage degeneration score, zone 3 / Tibial cartilage degeneration width, significant / Tibial cartilage degeneration width, total / Tibial osteophyte measure / Tibial osteophyte score / Total joint score w/o femur: mean; for % decrease, bone score / % decrease, depth ratio mean / % decrease, depth ratio zone 2 / % decrease, femoral cartilage degeneration score / % decrease, osteophyte measure / % decrease, osteophyte score / % decrease, significant degeneration width / % decrease, tibial score 3-zone total / % decrease, tibial score zone 1 / % decrease, tibial score zone 2 / % decrease, tibial score zone 3 / % decrease, total degeneration width / % decrease, total joint score / % decrease, total joint score w/o femur: vs saline group
Procedure, shortened: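 Rat knee joints were sectioned in 200-μm steps and stained with toluidine blue. Tibial cartilage degeneration was scored on a 5-point scale in three zones and summed with femoral scores, plus osteophyte scores, to give a total joint score. Results were averaged over three sections.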

[3] = tested on: MMT/MCLT rat model of OA; assay: MMT/MCLT trial 2 histopathology (same doses); type: in vivo; parameters: key to Tibial cartilage degeneration score, 3-zone total: sum of three tibial zone scores (each on 5-point scale); key to Total joint score w/o femur / Total joint score: sum: cartilage degeneration scores + mean osteophyte score; conditions: for Bone score / Depth ratio any matrix change, mean / Depth ratio any matrix change, zone 2 / Femoral cartilage degeneration score / Tibial cartilage degeneration score, 3-zone total / Tibial cartilage degeneration score, zone 1 / Tibial cartilage degeneration score, zone 2 / Tibial cartilage degeneration score, zone 3 / Tibial cartilage degeneration width, substantial (>50% thickness) / Tibial cartilage degeneration width, total / Tibial osteophyte measure / Tibial osteophyte score / Total joint score / Total joint score w/o femur: mean; for % decrease, bone score / % decrease, depth ratio mean / % decrease, femoral cartilage degeneration score / % decrease, osteophyte measure / % decrease, osteophyte score / % decrease, substantial degeneration width / % decrease, tibial score 3-zone total / % decrease, tibial score zone 1 / % decrease, tibial score zone 3 / % decrease, total degeneration width / % decrease, total joint score / % decrease, total joint score w/o femur / % decrease, depth ratio zone 2 / % decrease, tibial score zone 2: vs saline group
From the text: For MMT/MCLT rat knee joints, sections were cut in 200-μm steps; stained with toluidine blue (also with a right and left half per section); and similarly analyzed for cartilage degeneration, proteoglycan loss, collagen damage, and osteophyte formation. Results were averaged across the three sections for an overall semiquantitative score. Regional differences across the tibial plateau were taken into consideration by dividing each section into three zones delineated using an ocular micrometer (outside, middle, and inside). Scores were based on the percentage of area affected within the zone.
Cartilage degeneration in the tibia was scored on a 5-point scale as detailed in the Methods section of Additional file 1. The total extent of degeneration of the tibial plateau was measured (in micrometers) and included an analysis of cell loss, proteoglycan loss, and collagen damage. Significant cartilage degeneration reflecting any degeneration extending through more than 50 % of the cartilage thickness was also measured. Collagen damage across the medial tibial plateau (the most severely affected section of the two halves) was also quantified.
Osteophytes and femoral cartilage degeneration were analyzed as detailed in Additional file 1. Scoring of the osteophytes and categorization into small, medium, and large was performed using an ocular micrometer. The actual osteophyte measurement (tidemark to farthest distance point extending toward the synovium) was also recorded. The femoral cartilage degeneration score and the three-zone sum of the tibial cartilage degeneration scores (mean of three levels) were summed to create a total cartilage degeneration score. The mean osteophyte score for each joint was added to this value to create a total joint score. […]
Histopathology MMT/MCLT Model

[4] = tacrolimus 0.6 mg/kg, fluocinolone 10 μg/kg
[5] = tacrolimus 30 ng i.a., clonidine 100 μg/kg s.c.
[6] = i.a., tacrolimus 15 ng, curcumin 30 μg

## C=CC[C@@H]1/C=C(\C)C[C@H](C)C[C@H](OC)[C@H]2O[C@@](O)(C(=O)C(=O)N3CCCC[C@H]3C(=O)O[C@H](/C(C)=C/[C@@H]3CC[C@@H](O)[C@H](OC)C3)[C@H](C)[C@@H](O)CC1=O)[C@H](C)C[C@@H]2OC [Tacrolimus]
[1]
  Concentration inhibiting MMP-13: 50 µM
[2]; low or only dose
  Bone score: 2.63
  Depth ratio any matrix change, mean: 0.26
  Depth ratio any matrix change, zone 2: 0.07
  Tibial cartilage degeneration score, 3-zone total: 4.25
  Tibial cartilage degeneration score, zone 1: 2.75
  Tibial cartilage degeneration score, zone 2: 1.50
  Tibial cartilage degeneration score, zone 3: 0.00
  Tibial cartilage degeneration width, significant: 441.67 µm
  Tibial cartilage degeneration width, total: 1137.50 µm
  Tibial osteophyte measure: 370.83 µm
  Tibial osteophyte score: 2.38
  Total joint score w/o femur: 6.63
  % decrease, bone score: 19%
  % decrease, depth ratio mean: 29%
  % decrease, depth ratio zone 2: 59%
  % decrease, femoral cartilage degeneration score: 73%
  % decrease, osteophyte measure: 28%
  % decrease, osteophyte score: 39%
  % decrease, significant degeneration width: 39%
  % decrease, tibial score 3-zone total: 35%
  % decrease, tibial score zone 1: 36%
  % decrease, tibial score zone 2: 32%
  % decrease, tibial score zone 3: 100%
  % decrease, total degeneration width: 13%
  % decrease, total joint score: 42%
  % decrease, total joint score w/o femur: 37%
[2]; [4]
  Bone score: 3.00
  Depth ratio any matrix change, mean: 0.22
  Depth ratio any matrix change, zone 2: 0.02
  Tibial cartilage degeneration score, 3-zone total: 3.63
  Tibial cartilage degeneration score, zone 1: 2.42
  Tibial cartilage degeneration score, zone 2: 1.21
  Tibial cartilage degeneration score, zone 3: 0.00
  Tibial cartilage degeneration width, significant: 325.00 μm
  Tibial cartilage degeneration width, total: 945.83 μm
  Tibial osteophyte measure: 370.00 μm
  Tibial osteophyte score: 2.38
  Total joint score w/o femur: 6.00
  % decrease, bone score: 8%
  % decrease, depth ratio mean: 40%
  % decrease, depth ratio zone 2: 87%
  % decrease, femoral cartilage degeneration score: 48%
  % decrease, osteophyte measure: 28%
  % decrease, osteophyte score: 39%
  % decrease, significant degeneration width: 55%
  % decrease, tibial score 3-zone total: 45%
  % decrease, tibial score zone 1: 44%
  % decrease, tibial score zone 2: 45%
  % decrease, tibial score zone 3: 100%
  % decrease, total degeneration width: 28%
  % decrease, total joint score: 43%
  % decrease, total joint score w/o femur: 43%
[2]; tacrolimus 0.3 mg/kg
  % decrease, combined width severe+marked: 86%
  % decrease, combined width severe+marked+moderate: 88%
  % decrease, combined width severe+marked+moderate+mild: 33%
  % decrease, width of moderate collagen degeneration: 91%
  % decrease, width of severe collagen degeneration: 97%
  % increase, area of any cartilage matrix: 59%
[2]; tacrolimus 0.3 mg/kg, fluocinolone 5 ug/kg
  % increase, area of viable cartilage matrix: 26%
[2]; tacrolimus 0.6 mg/kg
  % decrease, combined width severe+marked: 99%
  % decrease, combined width severe+marked+moderate: 96%
  % decrease, combined width severe+marked+moderate+mild: 53%
  % decrease, width of marked collagen degeneration: 97%
  % decrease, width of severe collagen degeneration: 100%
  % decrease, width of total collagen degeneration: 19%
  % increase, area of any cartilage matrix: 69%
  % increase, width of normal collagen: 19%
[2]; tacrolimus 0.6 mg/kg, fluocinolone 10 ug/kg
  % increase, area of viable cartilage matrix: 33%
[3]; i.a., tacrolimus 15 ng
  Bone score: 2.60
  Depth ratio any matrix change, mean: 0.25
  Depth ratio any matrix change, zone 2: 0.06
  Femoral cartilage degeneration score: 0.87 and 0.87 ± 0.36
  Tibial cartilage degeneration score, 3-zone total: 4.43
  Tibial cartilage degeneration score, zone 1: 3.37
  Tibial cartilage degeneration score, zone 2: 1.07
  Tibial cartilage degeneration score, zone 3: 0.00
  Tibial cartilage degeneration width, substantial (>50% thickness): 536.67 µm
  Tibial cartilage degeneration width, total: 1060.00 µm
  Tibial osteophyte measure: 446.67 µm
  Tibial osteophyte score: 3.30
  Total joint score: 8.60 and 8.60 ± 0.63
  Total joint score w/o femur: 7.73
  % decrease, bone score: 19%
  % decrease, depth ratio mean: 23%
  % decrease, femoral cartilage degeneration score: 19%
  % decrease, osteophyte measure: 5%
  % decrease, osteophyte score: 7%
  % decrease, substantial degeneration width: 17%
  % decrease, tibial score 3-zone total: 21%
  % decrease, tibial score zone 1: 10%
  % decrease, tibial score zone 3: 100%
  % decrease, total degeneration width: 12%
  % decrease, total joint score: 16%
  % decrease, total joint score w/o femur: 16%
[3]; [5]
  Bone score: 2.60
  Depth ratio any matrix change, mean: 0.28
  Depth ratio any matrix change, zone 2: 0.08
  Femoral cartilage degeneration score: 0.80 and 0.8 ± 0.19
  Tibial cartilage degeneration score, 3-zone total: 4.73
  Tibial cartilage degeneration score, zone 1: 3.50
  Tibial cartilage degeneration score, zone 2: 1.20
  Tibial cartilage degeneration score, zone 3: 0.03
  Tibial cartilage degeneration width, substantial (>50% thickness): 576.67 µm
  Tibial cartilage degeneration width, total: 1090.00 µm
  Tibial osteophyte measure: 457.33 µm
  Tibial osteophyte score: 3.37
  Total joint score: 8.90 and 8.90 ± 0.66
  Total joint score w/o femur: 8.10
[3]; tacrolimus 15 ng i.a.
  % decrease, width of severe collagen degeneration: 86%
[3]; tacrolimus 30 ng i.a.
  % decrease, width of severe collagen degeneration: 87%
  % decrease, bone score: 19%
  % decrease, depth ratio mean: 15%
  % decrease, depth ratio zone 2: 50%
  % decrease, femoral cartilage degeneration score: 25%
  % decrease, osteophyte measure: 3%
  % decrease, osteophyte score: 6%
  % decrease, substantial degeneration width: 11%
  % decrease, tibial score 3-zone total: 15%
  % decrease, tibial score zone 1: 6%
  % decrease, tibial score zone 2: 35%
  % decrease, tibial score zone 3: 0%
  % decrease, total degeneration width: 10%
  % decrease, total joint score: 13%
  % decrease, total joint score w/o femur: 12%
[3]; [6]
  % decrease, depth ratio zone 2: 59%
  % decrease, tibial score zone 2: 42%

— article PMC4721142, “Randomized controlled studies on the efficacy of antiarthritic agents in inhibiting cartilage degeneration and pain associated with progression of osteoarthritis in the rat” (Arthritis Research & Therapy, 2016)
